Data as given in US20160220801A1, “TREATING LICE WITH GASEOUS COMPOUNDS IN AN AIRTIGHT SPACE” (NOVOMIC LTD., priority 2007, published 2016).

Tested on: lice
Conditions: active agent delivered as gas/vapour in an airtight cap around the head; comparison among carboxylic acids

Compound	effectiveness of carboxylic acids for use in treating lice and nits
O=CO [formic acid, Formic acid]	most effective
CC(=O)O [acetic acid, Acetic acid]	most effective
